According to PMC8821706, “Design and synthesis of novel nitrothiazolacetamide conjugated to different thioquinazolinone derivatives as anti-urease agents” (Scientific Reports, 2022):
In brackets after ≈: the same amount, converted by molar mass. Where two headings read alike, the source gives them in different places.

Columns and labels:
urease [1] = target: T1, urease (Canavalia ensiformis, UniProt P07374); assay: biochemical; assay type: biochemical, jack bean; settings: for improvement in potency compared to thiourea: ratio of urease IC50 versus thiourea (positive control)
T1 sequence (P07374 whole entry, looked up): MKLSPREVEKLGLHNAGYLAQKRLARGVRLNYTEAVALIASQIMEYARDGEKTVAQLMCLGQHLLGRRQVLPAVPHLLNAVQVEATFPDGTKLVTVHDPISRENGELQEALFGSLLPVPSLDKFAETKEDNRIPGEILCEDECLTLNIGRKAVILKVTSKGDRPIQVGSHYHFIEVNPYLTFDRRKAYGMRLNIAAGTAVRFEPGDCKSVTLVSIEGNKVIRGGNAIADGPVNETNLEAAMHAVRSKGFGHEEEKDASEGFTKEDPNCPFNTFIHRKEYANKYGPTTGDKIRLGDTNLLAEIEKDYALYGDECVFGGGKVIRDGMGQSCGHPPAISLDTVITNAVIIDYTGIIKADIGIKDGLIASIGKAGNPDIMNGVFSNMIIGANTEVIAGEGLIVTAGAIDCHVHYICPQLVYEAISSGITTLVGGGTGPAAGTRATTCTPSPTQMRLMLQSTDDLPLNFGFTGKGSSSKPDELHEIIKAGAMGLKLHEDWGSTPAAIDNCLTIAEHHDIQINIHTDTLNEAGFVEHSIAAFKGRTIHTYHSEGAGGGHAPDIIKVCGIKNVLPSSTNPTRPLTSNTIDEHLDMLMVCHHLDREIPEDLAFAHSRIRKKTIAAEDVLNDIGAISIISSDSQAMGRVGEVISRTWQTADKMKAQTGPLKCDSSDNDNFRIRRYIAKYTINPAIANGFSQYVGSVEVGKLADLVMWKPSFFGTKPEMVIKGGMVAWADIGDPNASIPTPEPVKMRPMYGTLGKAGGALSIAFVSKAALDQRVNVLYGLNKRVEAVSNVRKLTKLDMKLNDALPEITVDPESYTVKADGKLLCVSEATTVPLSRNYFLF
Procedure: In vitro anti-urease activity of synthesized compounds, 8a-n were performed based on the […] method against urease compared with thiourea as the reference inhibitor.
Urease inhibition effects of the synthesized compounds were determined according to the previously reported procedure[47]–[49]. 100 μL of the synthesized compounds at different concentrations was added to 850 μL of urea as substrate and 15 μL urease (0.135 units dissolved in PBS, pH 7.4). After 30 min, to 100 μL of the incubated solution, 500 μL solution I (5.0 g phenol and 25.0 mg sodium nitroprusside in 500 mL water) was added followed by the addition of 500 μL of solution II (2.5 g sodium hydroxide, 4.2 mL sodium hypochlorite, and 5% chlorine in 500 mL water) which was further incubated at 37 °C for 30 min. The absorbance was determined by measuring indophenols at 625 nm. Thiourea was used as the standard inhibitor for urease. The IC50 values for all synthesized compounds were calculated using GraphPad Prism software (GraphPad Software, Inc., San Diego, CA).

[2] = system: Cryptococcus neoformans (H99); assay: Antimicrobial activity, microbroth dilution (CLSI); assay type: cell-based; settings: tested 1 to 512 μg/ml
Procedure: (§1) The antimicrobial activity of compounds against the microorganisms including C. neoformans (H99), and clinical isolate of P.vulgaris was assessed using the microbroth dilution method, as recommended by the Clinical and Laboratory Standards Institute (CLSI) (M07-A9 for bacteria; M27-A3 for yeasts). The compounds were diluted, and stock solutions of 20 mg/ml in DMSO were prepared. Mueller–Hinton Broth (HiMedia) and RPMI-1640 (Sigma) were prepared as recommended for antimicrobial susceptibility testing of bacterial and fungal strains, respectively. Two-fold dilutions were made in the range of 1–512 μg/ml for tested compounds. The microbroth dilution test was accomplished using a 96-well microtiter plate, containing growth control (yeast culture in broth media) and sterility control (broth media without fungal culture). The antimicrobial susceptibility test was accomplished by adding a cell suspension adjusted to the 0.5 McFarland standard (1–2 × 10^8 CFU/mL for bacterial strains; 1−5 × 10^6 cells/ml for yeast) to different concentrations of tested compounds. […] All experiments were performed in duplicates.

[3] = system: clinical isolate of Proteus vulgaris; assay: Antimicrobial activity, microbroth dilution (CLSI); assay type: cell-based; settings: tested 1 to 512 μg/ml
Procedure: as §1

[4] = system: clinical isolate of P.vulgaris; assay: Anti-ureolytic activity, colorimetric microdilution in urea broth; assay type: cell-based; settings: Proteus vulgaris; 560 nm, after 24 h; read-out: IC50 (µg/ml) of P. vulgaris (anti-ureolytic effect)
Procedure: (§2) The colorimetric microdilution technique using urea broth media (Merck, supplemented with glucose; pH = 6 for C. neoformans) was used to examine the urolytic activity of C. neoformans (H99), and clinical isolate of P.vulgaris treated with tested substances. Compounds in the concentration range of 1–512 μg/mL were exposed to ureolytic microorganisms, and the color of the medium was evaluated visually and spectroscopically at 560 nm after three days for C. neoformans and 24 h for P. vulgaris. The positive control, which included ureolytic bacteria but no drugs, changed color from yellow to dark pink or magenta. This shifts, allowing the determination of the inhibitory activity of compounds against urease activity of organisms even without a microtiter plate reader[57],[58].

C. neoformans (H99) = assay: as above; assay type: cell-based; settings: Cryptococcus neoformans, 72 h; 560 nm, after three days; read-out: IC50 (µg/ml) of C. neoformans (anti-ureolytic effect)
Procedure: as §2

urease [5] = settings: cited from earlier work
H. pylori = system: H. pylori; parameters: method as in PMID 10394014; settings: cited from earlier work
urease [6] = target: T1, urease; assay: Kinetic study of urease inhibition (Lineweaver–Burk); assay type: biochemical, jack bean
Procedure: The mechanism of urease inhibition was investigated by enzyme kinetics, following the similar procedure of the urease inhibition assay. Lineweaver–Burk graphics were used to estimate the type of inhibition.
The kinetic study for the inhibition of urease by compound 8h was carried out using four different concentrations of inhibitor. For the kinetic study of urease, compound 8h was used at the concentrations of 0, 1, 2, and 4 μM. The Lineweaver–Burk reciprocal plot was constructed by plotting 1/V against 1/[S] at variable concentrations of the substrate urea (3.12–100 mM). The inhibition constant Ki was calculated by the plot of slopes versus the corresponding concentrations of the compound 8h.

COc1ccc(-n2c(SCC(=O)Nc3ncc([N+](=O)[O-])s3)nc3ccccc3c2=O)cc1 [Compound 8d, 2-((3-(4-methoxyphenyl)-4-oxo-3,4-dihydroquinazolin-2-yl)thio)-N-(5-nitrothiazol-2-yl)acetamide]
IC50 (urease [1]): 2.78 ± 0.32 µM

O=C(CSc1nc2ccccc2c(=O)n1Cc1cccnc1)Nc1ncc([N+](=O)[O-])s1 [Compound 8g, N-(5-nitrothiazol-2-yl)-2-((4-oxo-3-(pyridin-3-ylmethyl)-3,4-dihydroquinazolin-2-yl)thio)acetamide]
IC50 (urease [1]): 2.5 ± 0.37 µM | MIC [2]: > 512 µg/mL | MIC [3]: > 512 µg/mL | IC50 [4]: > 512 µg/mL

Cc1ccc(Cn2c(SCC(=O)Nc3ncc([N+](=O)[O-])s3)nc3ccccc3c2=O)cc1 [Compound 8f, 2-((3-(4-methylbenzyl)-4-oxo-3,4-dihydroquinazolin-2-yl)thio)-N-(5-nitrothiazol-2-yl)acetamide]
IC50 (urease [1]): 3.5 ± 0.28 µM

O=C(CSc1nc2ccccc2c(=O)n1-c1ccc(Cl)cc1)Nc1ncc([N+](=O)[O-])s1 [Compound 8b, 2-((3-(4-chlorophenyl)-4-oxo-3,4-dihydroquinazolin-2-yl)thio)-N-(5-nitrothiazol-2-yl)acetamide]
IC50 (urease [1]): 2.34 ± 0.19 µM

O=C(CSc1nc2ccccc2c(=O)n1Cc1ccccc1)Nc1ncc([N+](=O)[O-])s1 [Compound 8e, 2-((3-benzyl-4-oxo-3,4-dihydroquinazolin-2-yl)thio)-N-(5-nitrothiazol-2-yl)acetamide]
IC50 (urease [1]): 3.83 ± 0.17 µM

O=C(CSc1nc2ccccc2c(=O)n1-c1ccc(Br)cc1)Nc1ncc([N+](=O)[O-])s1 [Compound 8c, 2-((3-(4-bromophenyl)-4-oxo-3,4-dihydroquinazolin-2-yl)thio)-N-(5-nitrothiazol-2-yl)acetamide]
IC50 (urease [1]): 2.22 ± 0.09 µM | MIC [2]: > 512 µg/mL | MIC [3]: > 512 µg/mL | IC50 (C. neoformans (H99)): 174 ± 4.9 µg/mL (≈ 335 µM) | IC50 [4]: 383 ± 5.1 µg/mL (≈ 739 µM)

CC(C)Cn1c(SCC(=O)Nc2ncc([N+](=O)[O-])s2)nc2ccccc2c1=O [Compound 8l, 2-((3-isobutyl-4-oxo-3,4-dihydroquinazolin-2-yl)thio)-N-(5-nitrothiazol-2-yl)acetamide]
IC50 (urease [1]): 8.43 ± 0.61 µM

CCCCn1c(SCC(=O)Nc2ncc([N+](=O)[O-])s2)nc2ccccc2c1=O [Compound 8k, 2-((3-butyl-4-oxo-3,4-dihydroquinazolin-2-yl)thio)-N-(5-nitrothiazol-2-yl)acetamide]
IC50 (urease [1]): 3.02 ± 0.12 µM

O=C(CSc1nc2ccccc2c(=O)n1-c1ccccc1)Nc1ncc([N+](=O)[O-])s1 [Compound 8a, N-(5-nitrothiazol-2-yl)-2-((4-oxo-3-phenyl-3,4-dihydroquinazolin-2-yl)thio)acetamide]
IC50 (urease [1]): 4.72 ± 0.26 µM | improvement in potency compared to thiourea (urease [1]): around fivefold

C=CCn1c(SCC(=O)Nc2ncc([N+](=O)[O-])s2)nc2ccccc2c1=O [Compound 8m, 2-((3-allyl-4-oxo-3,4-dihydroquinazolin-2-yl)thio)-N-(5-nitrothiazol-2-yl)acetamide]
IC50 (urease [1]): 5.46 ± 0.38 µM

Cc1cnc(NC(=O)CSc2nnc(-c3cccc([N+](=O)[O-])c3)o2)s1 [F]
IC50 (urease [5]; thiazolbenzamide, Fig. 1F): 2170 ± 410 nM

CC(=O)Oc1ccccc1C(=O)Nc1ncc([N+](=O)[O-])s1 [Nitazoxanide]
MIC50 against H. pylori (H. pylori): 4 µg/mL (≈ 13 µM) | MIC90 against H. pylori (H. pylori): 8 µg/mL (≈ 26 µM)

O=C(CSc1nc2ccccc2c(=O)n1CCc1ccccc1)Nc1ncc([N+](=O)[O-])s1 [Compound 8h, N-(5-nitrothiazol-2-yl)-2-((4-oxo-3-phenethyl-3,4-dihydroquinazolin-2-yl)thio)acetamide]
IC50 (urease [1]): 2.22 ± 0.44 µM | improvement in potency compared to thiourea (urease [1]): ten-fold | Ki (urease [6]): 1990 nM | inhibition pattern against urease (urease [6]; Lineweaver–Burk plot): uncompetitive | MIC [2]: > 512 µg/mL | MIC [3]: > 512 µg/mL | IC50 (C. neoformans (H99)): 129 ± 5.3 µg/mL (≈ 277 µM) | IC50 [4]: 172 ± 8.7 µg/mL (≈ 369 µM)

CC(C)n1c(SCC(=O)Nc2ncc([N+](=O)[O-])s2)nc2ccccc2c1=O [Compound 8j, 2-((3-isopropyl-4-oxo-3,4-dihydroquinazolin-2-yl)thio)-N-(5-nitrothiazol-2-yl)acetamide]
IC50 (urease [1]): 6.04 ± 0.57 µM

CCCn1c(SCC(=O)Nc2ncc([N+](=O)[O-])s2)nc2ccccc2c1=O [Compound 8i, N-(5-nitrothiazol-2-yl)-2-((4-oxo-3-propyl-3,4-dihydroquinazolin-2-yl)thio)acetamide]
IC50 (urease [1]): 4.26 ± 0.46 µM

O=C(CSc1nc2ccccc2c(=O)n1C1CCCC1)Nc1ncc([N+](=O)[O-])s1 [Compound 8n, 2-((3-cyclopentyl-4-oxo-3,4-dihydroquinazolin-2-yl)thio)-N-(5-nitrothiazol-2-yl)acetamide]
IC50 (urease [1]): 2.96 ± 0.45 µM

NC(N)=S [Thiourea, reference compound]
IC50 (urease [1]; mean ± standard error of three independent experiments, read-out: IC50 (urease inhibitory activity)): 22.5 ± 0.44 µM | IC50 (urease) (urease [5]; quinazolin-4(3H)-ones, Fig. 1C): 15.06 µg/mL (≈ 198 µM)

CCc1nc2ccccc2c(=O)n1CC(=O)NNC(=O)c1cc2cc(Br)ccc2oc1=O [B]
IC50 (urease) (urease [5]; quinazolinone-coumarin derivatives, Fig. 1B): 1.26 ± 0.07 µg/mL (≈ 2.53 µM)

O=C(Nc1ncc([N+](=O)[O-])s1)c1ccccc1O [Tizoxanide]
MIC50 against H. pylori (H. pylori): 4 µg/mL (≈ 15.1 µM) | MIC90 against H. pylori (H. pylori): 8 µg/mL (≈ 30.2 µM)

CCNc1nnc(Cn2c(Cc3ccc(F)cc3)nc3ccccc3c2=O)s1 [C]
IC50 (urease) (urease [5]; quinazolin-4(3H)-ones, Fig. 1C): 1.88 ± 0.17 µg/mL (≈ 4.75 µM)

O=C(Cn1c(Cc2ccc(Cl)cc2)nc2ccccc2c1=O)N/N=C/c1ccco1 [A]
IC50 (urease) (urease [5]; 2,3-disubstituted quinazolin-4(3H)-ones, Fig. 1A): 1.55 ± 0.11 µg/mL (≈ 3.68 µM)
